“And” between values parts separate entries of the source, which are not always exact repeats. Equal values may be shown once.

What all share (format): cell-based
Test [1] concerns Escherichia coli ATCC 25922. The experiment in a line: MIC determination and synergy testing (Kull synergy index), microplate. The settings on record: for QB/b: concentration of CG (MIC alone, or in the combination at an inhibitory concentration) / SI (synergy index) / QA, MIC of CHDM alone / QA/a: concentration of CHDM (MIC alone, or in the combination at an inhibitory concentration) / QA/a: concentration of CHDM alone (QA, MIC): E. coli; for QB/b: concentration of CG (MIC alone, or in the combination at an inhibitory concentration) / SI (synergy index) / QA/a: concentration of CHDM (MIC alone, or in the combination at an inhibitory concentration): plate 107A, CG and CHDM. How it is done:
(§1) The test cultures are listed in Table 7 along with the incubation temperatures used for growth and minimum inhibitory concentration (MIC) testing. […] C. albicans was cultured in Sabouraud dextrose broth (SDB) for approximately 44-52 hours for preparation of inoculum. A. niger was cultured on Sabouraud dextrose agar (SDA) for 3-4 days until there was confluent growth and visible spore formation. Spores were harvested from the SDA plates by flooding the surface of the plate with 5-10 mL of phosphate-buffered saline (PBS) and gently spreading the liquid across the surface of the plate with a sterile T-shaped plastic spreader (Copan Diagnostics) until there was a well-mixed suspension of spores. The resulting spore suspension was collected using a serological pipette and stored at 2-8° C. until use.
(§2) Inoculum concentration was determined by dilution plating of the cultures or spore suspension. A serial dilution in PBS was made to 10^−8 for the bacterial cultures or 10^−5 for the fungal cultures. Fifty or 100 μL of the final dilution was spread on two Trypticase-soy agar (TSA) plates for bacteria or two SDA plates for fungi. After 24 to 48 hours plates were counted and the concentrations used in each experiment were calculated.
(§3) The antimicrobial agents tested for synergy along with the respective diluents and working stock solution concentrations are shown below. For determination of MIC ranges, individual antimicrobial agent stock solutions were added to sterile medium to yield the highest level test concentrations, and then serially diluted in the medium to prepare the range of test concentrations. For synergy testing individual test concentrations were prepared in sterile medium, and then blended to form the desired combinations.
(§4) MICs were determined using a high-throughput microplate method. Individual antimicrobial agents were added to TSB (pH 7.3) for bacterial testing or SDB (pH 5.6) for fungal testing at the highest concentration to be tested. A serial dilution series was prepared at a dilution ratio of 1:1.3333 such that a one log range was covered in nine dilutions. Two-hundred microliters of the diluted antimicrobial agents were dispensed into four wells each of a sterile, 96-well, flat-bottom microplate (Nalge Nunc International). Four additional wells of the highest concentration were dispensed to serve as uninoculated high-level controls. Eight additional wells containing only broth medium were also prepared, four to serve as negative controls and four as positive controls. Three wells of each antimicrobial agent dilution were inoculated with one of the test strains in Table 7. The final well of each antimicrobial agent dilution was left uninoculated to serve as a control (and means of compensating) for any absorbance/turbidity due to the test compounds.
Microplates were inoculated using the cultures or spore suspensions prepared as described above. The S. aureus cultures were used undiluted, while the E. coli and P. aeruginosa cultures were used either undiluted or after a 1:2 dilution in sterile TSB. The C. albicans cultures were used either undiluted or following a 2-fold concentration by centrifugation. One of two means of inoculation was used to deliver a final concentration of approximately 10^5 colony-forming units (CFU)/mL of C. albicans, 10^5 spores/mL of A. niger, or 10^6 CFU/mL of bacteria. The primary method used a stainless steel pin replicator (Nalge Nunc International) mounted on a hand-operated bench-top press (Schmidt Technology Corporation) fitted with a custom-built microplate holder to dispense one microliter of each inoculum from a “master” plate containing 50-100 μL of culture into the wells of the test plate. The pin replicator was sterilized before and between inoculations by immersing in ethanol and flaming. The alternative method of inoculation was by directly pipetting 20 μL of a 1:20 dilution of each culture or spore suspension into the appropriate wells of the test plates.

In test [2] the test system is Aspergillus niger ATCC 16404. The test is described as above. On the procedure:
as §1, §2
The A. niger spore suspensions were concentrated to a level of 1-2×10^8 spores/mL by centrifugation and resuspension in a portion of the resulting supernatant.
as §3, §4
Microplates were inoculated using the cultures or spore suspensions prepared as described above. The S. aureus cultures were used undiluted, while the E. coli and P. aeruginosa cultures were used either undiluted or after a 1:2 dilution in sterile TSB. The C. albicans cultures were used either undiluted or following a 2-fold concentration by centrifugation. One of two means of inoculation was used to deliver a final concentration of approximately 10^5 colony-forming units (CFU)/mL of C. albicans, 10^5 spores/mL of A. niger, or 10^6 CFU/mL of bacteria. The primary method used a stainless steel pin replicator (Nalge Nunc International) mounted on a hand-operated bench-top press (Schmidt Technology Corporation) fitted with a custom-built microplate holder to dispense one microliter of each inoculum from a “master” plate containing 50-100 μL of culture into the wells of the test plate. The pin replicator was sterilized before and between inoculations by immersing in ethanol and flaming. […]

For test [3], the system named is trivalent bacterial-fungal inocula. In words: 15-day biofouling control in B-100 biodiesel:Bushnell-Haas broth, visual turbidity. More on the design: key: 0 = No Growth; 1 = Slight Growth; 2 = Moderate Growth; 3 = Heavy Growth. The following applies: biocide 0 mg/L, 15 days, 22° C., trivalent inoculum 50 uL. On the procedure:
Antimicrobial efficacy data (Table 54 & Table 55) were obtained for 1,4-CHDM with and without biocide in protection of B-100 biodiesel from microbial growth derived via either biodiesel-acclimated bioslime or trivalent bacterial-fungal inocula after 15-day exposure at 22° C. This testing was via a visual turbidity methodology. Neither micro-liter plates nor automatic plate reader could be used in this experiment due to the inherent biphasic nature of the system. B-100 biodiesel:Bushnell-Haas broth was used, which is a minimal salts medium specially designed for evaluating growth of microorganisms on hydrocarbons. Samples were evaluated visually (i.e., the more the turbidity, the more the growth, the less the turbidity, the less the growth, and no turbidity means no growth).

[4] abbreviates: A. niger, plate 154C, day 3, MP and CHDM.

`CCCCCCC(O)CO` (centres unmarked) [CG, 1,2-octanediol]: the “QB/b: concentration of CG (MIC alone, or in the combination at an inhibitory concentration)” value in test [1] (day 1) and in test [1] (day 2) was 0.16 weight percent each time. The “SI (synergy index)” value in test [1] (day 1) and in test [1] (day 2) was 1.00 throughout. Further, the “Synergism of antimicrobial agent in combination with 1,4-CHDM for A. niger (in words; in the 12th table the cell names the organism and table number)” value in test [2] (Kull synergy index, synergistic when at least two results SI<1) is “A. niger (14)”.

As for `OCC1CCC(CO)CC1` (centres unmarked) [1,4-CHDM, 1,4-cyclohexanedimethanol], the QA/a in test [1] (CHDM alone (QA) or in combination with BA:DHA (a), plate 111A, day 1) is 1.73; in test [1] (CHDM alone (QA) or in combination with IPBC (a), plate 119A, day 1), 1.73; in test [1] (CHDM alone (QA) or in combination with IPBC (a), plate 119A, day 2) it was 1.73; in test [1] (CHDM: MIC alone (QA) or conc. in combination with CP (a), plate 110A, day 1), 1.73; in test [1] (CHDM: MIC alone (QA) or conc. in combination with CP (a), plate 110A, day 2), 1.73; in test [2] (CHDM alone (QA) or in combination with DMDM hydantoin (a), plate 196C, day 3), 2.78. Moreover, the QA/a in test [2] (CHDM alone (QA) or in combination with IPBC (a), plate 259C, day 2) stood at 5.00; in test [2] (CHDM alone (QA) or in combination with IPBC (a), plate 260C, day 3), 6.50; in test [2] (CHDM: MIC alone (QA) or conc. in combination with BA:DHA (a), plate 195C, day 2), 4.93; in test [2] (CHDM: MIC alone (QA) or conc. in combination with BA:DHA (a), plate 195C, day 3), 4.93; in test [2] (CHDM: MIC alone (QA) or conc. in combination with BA:DHA (a), plate 215C, day 2) it was 4.50; in test [2] (CHDM: MIC alone (QA) or conc. in combination with BA:DHA (a), plate 215C, day 3), 4.50. Further, the QA/a worked out at 3.70 in test [2] (CHDM: MIC alone (QA) or conc. in combination with CP (a), plate 194C, day 2); 2.78 in test [2] (CHDM: MIC alone (QA) or conc. in combination with CP (a), plate 194C, day 3); 4.93 in test [2] (CHDM: MIC alone (QA) or conc. in combination with MIT (a), plate 193C, day 2); 2.78 in test [2] (CHDM: MIC alone (QA) or conc. in combination with MIT (a), plate 193C, day 3); 4.50 in test [2] (CHDM: MIC alone (QA) or conc. in combination with MIT (a), plate 214C, day 2); 6.00 in test [2] (CHDM: MIC alone (QA) or conc. in combination with MIT (a), plate 214C, day 3). For the same molecule, the “QA, MIC of CHDM alone” value is 1.73 weight percent in test [1] (day 1 of incubation, plate 108A (MP series)); 1.30 weight percent and 1.47 weight percent in test [1] (day 1 of incubation, plates 105A, 213A, 223A (PE series)); 1.73 weight percent in test [1] (day 2 of incubation, plate 108A (MP series)); 1.30 weight percent and 1.47 weight percent in test [1] (day 2 of incubation, plates 105A, 213A, 223A (PE series)); 4.50 weight percent and 3.11 weight percent in test [2] (A. niger, day 2 of incubation, plates 123C, 217C (CG series)); 3.11 weight percent in test [2] (A. niger, day 3 of incubation, plate 123C (CG series)). Moreover, the “QA/a: concentration of CHDM (MIC alone, or in the combination at an inhibitory concentration)” value in test [1] (day 1) is listed as 1.73 weight percent; in test [1] (day 2) it was 1.73 weight percent; in test [2] (setting [4]), 2.03 weight percent. Moreover, the “SI (synergy index)” value in test [1] (day 1), in test [1] (day 2) and in test [2] (setting [4]) was 1.00 each time. For the same molecule, the “QA/a: concentration of CHDM alone (QA, MIC)” value in test [1] (Table 44, Day 1) came out at 1.73 weight percent; in test [1] (Table 44, Day 2), 1.73 weight percent; in test [1] (Table 47, Day 1) it was 1.73 weight percent; in test [1] (Table 47, Day 2), 1.73 weight percent. Also, the “Growth (visual turbidity rating)” value in test [3] (1,4-CHDM 0.1% (v/v)), in test [3] (1,4-CHDM 0.2% (v/v)), in test [3] (1,4-CHDM 0.3% (v/v)), in test [3] (1,4-CHDM 0.4% (v/v)) and in test [3] (1,4-CHDM 0.5% (v/v)) was 3 each time.
